Test system: HER2-overexpressing human NSCLC cell line Calu-3
Experiment: Calu-3 subcutaneous xenograft, zongertinib with trastuzumab and/or pertuzumab
Format: in vivo, CB-17/Icr-Prkdc^scid mice
Conditions: day 42, zongertinib 20 mg/kg qdx42 p.o., trastuzumab 20 mg/kg q7dx6 i.p., pertuzumab 20 mg/kg q7dx6 i.p., alone or combined
Experimental: The study is performed in human NSCLC cell line Calu-3 grown as subcutaneous xenografts in CB-17/Icr-Prkdc^scid mice. Day 1 was the first day, day 42 the last day of treatment and final day of analysis.
Calu-3 is a HER2-overexpressing human NSCLC cell line that can be obtained from ATCC (lot 614492062). Cells are cultured in T75, T175 and 5-Layer tissue culture flasks at 37° C. and 5% CO2. The medium used is EMEM (Lonza BE12-662F) supplemented with 10% FCS (Cytiva HyClone Characterized FBS, SH30084.03n), 2 mM Glutamax (Gibco 35050-038), 0.5 mM sodium pyruvate (Sigma S8636). Cultures are split once weekly with a ratio of 1:1.5-1:2.
To establish subcutaneous tumors, Calu-3 cells are harvested by centrifugation, washed and resuspended in PBS+5% FCS at 7×10^7 cells/ml. 50 μl cell suspension containing 3.5×10^6 cells is injected subcutaneously into the right flank of mice (1 site per mouse).
Mice in the control group are treated with vehicle, i.e.: • (i) 0.5% Natrosol, administered once daily for the duration of the treatment intragastrally by gavage needle with a volume of 10 ml/kg body weight; and • (ii) saline (0.9%), administered once every week intraperitoneally with a volume of 10 ml/kg.
Tumor volumes and side effects are monitored as described in Example 1 (see paragraph 1.1.6).
The statistical evaluation of the tumor volume and the body weight is conducted on day 21 (last day of the study). Apart from this, statistical analysis was performed as described in Example 1 (see paragraph 1.1.7), with no evaluation of tumor growth after stop of treatment.

In the case of `C=CC(=O)NC1CCN(c2ncc3ncnc(Nc4ccc(Oc5ccc6c(c5)ncn6C)c(C)c4)c3n2)CC1` [Zongertinib, N-{1-[8-({3-methyl-4-[(1-methyl-1H-1,3-benzodiazol-5-yl)oxy]phenyl}amino)-[1,3]diazino [5,4-d]pyrimidin-2-yl]piperidin-4-yl}prop-2-enamide], the “Regressions >30%” value (tumors regressed/total (partial response)) is reported as 0/10 and the TGI is reported as 64%.
